Columns and labels:
[1] = system: pentagastrin-stimulated acid secretion of the perfused rat stomach; assay: Secretion-inhibiting action on the perfused rat stomach (pentagastrin-stimulated acid secretion, in vivo); conditions: anesthetized CD rat, dose 3 μmol/kg i.v.
Excerpt: Testing of the Secretion-inhibiting Action on the Perfused Rat Stomach
In Table A which follows, the influence of the compounds according to the invention on the pentagastrin-stimulated acid secretion of the perfused rat stomach after intravenous administration in vivo is shown.
The abdomen of anesthetized rats (CD rat, female, 200-250 g; 1.5 g/kg i.m. urethane) was opened after tracheotomy by a median upper abdominal incision and a PVC catheter was fixed transorally in the esophagus and another via the pylorus such that the ends of the tube just projected into the gastric lumen. The catheter leading from the pylorus led outwards into the right abdominal wall through a side opening.
After thorough rinsing (about 50-100 ml), warm (37° C.) physiological NaCl solution was continuously passed through the stomach (0.5 ml/min, pH 6.8-6.9; Braun-Unita 1). The pH (pH meter 632, glass electrode EA 147; φ=5 mm, Metrohm) and, by titration with a freshly prepared 0.01 N NaOH solution to pH 7 (Dosimat 665 Metrohm), the secreted HCl were determined in the effluent in each case collected at an interval of 15 minutes.
The gastric secretion was stimulated by continuous infusion of […] (=1.65 ml/h) of i.v. pentagastrin (left femoral vein) about 30 min after the end of the operation (i.e. after determination of 2 preliminary fractions). […]

Row | SMILES | melting point | Inhibition of acid secretion [1]
1 | CCS[C@@H]1c2ccn3c(C)c(C)nc3c2N[C@H](c2ccccc2)[C@H]1O [Example 5, (7R,8R,9R)-2,3dimethyl-8-hydroxy-7-(ethylthio)-9-phenyl-7,8,9,10-tetrahydro-imidazo[1,2-h][1,7]naphthyridine] | 220 to 223 °C | 100%
2 | CCS[C@H]1c2ccn3c(C)c(C)nc3c2N[C@H](c2ccccc2)[C@H]1O [Example 6, (7S,8R,9R)-2,3-dimethyl-8-hydroxy-7-(ethylthio)-9-phenyl-7,8,9,10-tetrahydro-imidazo[1,2-h][1,7]naphthyridine] | 235 to 236 °C | 

Further lines, with some results ahead:

Row | melting point | SMILES | Inhibition of acid secretion [1]
3 | 118 to 119 °C | CSCCO[C@@H]1c2ccn3c(C)c(C)nc3c2N[C@H](c2ccccc2)[C@H]1O [Example 1, (7R,8R,9R)-2,3-dimethyl-8-hydroxy-7-(2-methylthioethyloxy)-9-phenyl-7,8,9,10-tetrahydroimidazo[1,2-h][1,7]naphthyridine] | 100%
4 | 109 to 110 °C | CSCCO[C@H]1c2ccn3c(C)c(C)nc3c2N[C@H](c2ccccc2)[C@H]1O [Example 2, (7S,8R,9R)-2,3-dimethyl-8-hydroxy-7-(2-methylthioethyloxy)9-phenyl-7,8,9,10-tetrahydroimidazo[1,2-h][1,7]naphthyridine] | 
5 | 105 to 106 °C | Cc1nc2c3c(ccn2c1C)[C@@H](OCC[S+](C)[O-])[C@H](O)[C@@H](c1ccccc1)N3 (stereo partly drawn) [Example 3, (7R,8R,9R)-2,3-dimethyl-8-hydroxy-7-(2-methylsulphinylethoxy)-9phenyl-7,8,9,10-tetrahydroimidazo[1,2-h][1,7]naphthyridine] | 
6 | 85 to 87 °C | Cc1nc2c3c(ccn2c1C)[C@H](OCC[S+](C)[O-])[C@H](O)[C@@H](c1ccccc1)N3 (stereo partly drawn) [Example 4, (7S,8R,9R)-2,3-dimethyl-8-hydroxy-7-(2-methylsulphinylethoxy)-9-phenyl-7,8,9,10-tetrahydroimidazo[1,2-h][1,7]naphthyridine] | 

— patent US6384048B1, “Imidazonaphthyridines” (Byk Gulden Lomberg Chemische Fabrik GmbH, priority 1998, dated 2002)
